pEC50, pIC50: −log10 of the molar value. “Also recorded” adds a separate entry of the source.
How the values were obtained:
PI3KC2B = PI3KC2B (Homo sapiens, UniProt O00750); assay: PI3KC2B kinase assay; format: biochemical
Experimental: (§1) PI-kinase assay: Compounds are tested in C.1.1. PI kinase assays as described by Shokat et al., “A membrane capture assay for lipid kinase activity.” Nat. Protoc. 2007; 2(10):2459-66.

PI4KIIIA = target: T1, PI4KIIIA (Homo sapiens, UniProt P42356); assay: PI4KIIIA kinase assay; format: biochemical
T1 construct: made in house; host or cells: COS-7 cells, transient transfection, anti-HA immunoprecipitate on protein G Sepharose beads
Experimental: In the assays described here, p110α-p85 complex and p110γ were acquired from Millipore. Assays were performed with Lα-phosphatidylinositol (Avanti) as described in Knight et al. Nat Protoc. 2007; 2 (10):2459-66. Inhibitor series were prepared 10% DMSO as 5× stocks for the assay. Assays of HsVps34 were performed as described in Knight et al, except that the final assay buffer composition used was changed to 20 mM HEPES 7.5, 100 mM NaCl, 3 mM MgCl, 1 mg/mL PI and 44 nM hvps34 was used in the assay. […] COS-7 cells were cultured in 10 cm dishes and transfected at 70% confluence with 10 μg of plasmid DNA (HA-tagged bovine PI4KIIIβ, HA-tagged human PI4KIIIα) using Lipofectamine 2000 and 5 ml Opti-MEM following the manufacturer's instructions. After 5 hours the transfection medium was replaced with 10 ml complete DMEM. 36 hrs post transfection, cells were washed once with 5 ml PBS (pH 7.4) and lysed in 1 ml of lysis buffer (1) on ice. Lysates were collected by scraping and after 15 min they were centrifuged at 13,000 rpm for 10 min. To the lysates was added 200 μl of protein G Sepharose 4 fast flow beads that were prewashed with PBS and lysis buffer and 2 μg of anti-HA antibody. The tubes were then incubated overnight at 4 degrees C. in a tube rotator. The Sepharose beads in the lysate were washed twice with 150 mM NaCl in RIPA buffer, twice with RIPA buffer and once with kinase buffer (50 mM Tris/HCl, pH 7.5, 20 mM MgCl2, 1 mM EGTA, 1 mM PtdIns, 0.4% Triton X-100, 0.5 mg/mL BSA) and finally the beads were resuspended in 200 μL kinase buffer. Kinase reactions were run in a mixture of 45 μL of PI buffer (1 mM PI in kinase buffer), 10 μL of immunoprecipitated beads, 2 µL of inhibitors (dissolved and diluted in DMSO) or DMSO and 5 μL of [γ-^32P]-ATP (1 mM and 2 μCi/tube). The immunoprecipitates in PI buffer were pre-incubated with the drugs for 20 min prior the initiation of kinase reaction by adding ATP and the reactions were carried out for 30 min in 15 ml polypropolyne tubes. […] Samples were counted in a scintillation beta counter after adding 5 ml of Instafluor (Perkin-Elmer). […]

PI3K p110a = target: T2, PI3K p110a (Homo sapiens, UniProt P42336); assay: PI3K p110a kinase assay; format: biochemical
T2 construct: purchased Millipore
Experimental: In the assays described here, p110α-p85 complex and p110γ were acquired from Millipore. Assays were performed with Lα-phosphatidylinositol (Avanti) as described in Knight et al. Nat Protoc. […] Inhibitor series were prepared 10% DMSO as 5× stocks for the assay. […] COS-7 cells were cultured in 10 cm dishes and transfected at 70% confluence with 10 μg of plasmid DNA (HA-tagged bovine PI4KIIIβ, HA-tagged human PI4KIIIα) using Lipofectamine 2000 and 5 ml Opti-MEM following the manufacturer's instructions. After 5 hours the transfection medium was replaced with 10 ml complete DMEM. 36 hrs post transfection, cells were washed once with 5 ml PBS (pH 7.4) and lysed in 1 ml of lysis buffer (1) on ice. […] To the lysates was added 200 μl of protein G Sepharose 4 fast flow beads that were prewashed with PBS and lysis buffer and 2 μg of anti-HA antibody. The tubes were then incubated overnight at 4 degrees C. in a tube rotator. […] Kinase reactions were run in a mixture of 45 μL of PI buffer (1 mM PI in kinase buffer), 10 μL of immunoprecipitated beads, 2 µL of inhibitors (dissolved and diluted in DMSO) or DMSO and 5 μL of [γ-^32P]-ATP (1 mM and 2 μCi/tube). […] Samples were counted in a scintillation beta counter after adding 5 ml of Instafluor (Perkin-Elmer). […]

PI4KIIIB = target: T3, PI4KIIIB (Bos taurus, UniProt O02810); assay: PI4KIIIB kinase assay; format: biochemical, bovine
T3 construct: made in house; host or cells: COS-7 cells, transient transfection, anti-HA immunoprecipitate on protein G Sepharose beads
Experimental: In the assays described here, p110α-p85 complex and p110γ were acquired from Millipore. Assays were performed with Lα-phosphatidylinositol (Avanti) as described in Knight et al. Nat Protoc. […] Inhibitor series were prepared 10% DMSO as 5× stocks for the assay. […] COS-7 cells were cultured in 10 cm dishes and transfected at 70% confluence with 10 μg of plasmid DNA (HA-tagged bovine PI4KIIIβ, HA-tagged human PI4KIIIα) using Lipofectamine 2000 and 5 ml Opti-MEM following the manufacturer's instructions. After 5 hours the transfection medium was replaced with 10 ml complete DMEM. 36 hrs post transfection, cells were washed once with 5 ml PBS (pH 7.4) and lysed in 1 ml of lysis buffer (1) on ice. […] To the lysates was added 200 μl of protein G Sepharose 4 fast flow beads that were prewashed with PBS and lysis buffer and 2 μg of anti-HA antibody. The tubes were then incubated overnight at 4 degrees C. in a tube rotator. […] Kinase reactions were run in a mixture of 45 μL of PI buffer (1 mM PI in kinase buffer), 10 μL of immunoprecipitated beads, 2 µL of inhibitors (dissolved and diluted in DMSO) or DMSO and 5 μL of [γ-^32P]-ATP (1 mM and 2 μCi/tube). The immunoprecipitates in PI buffer were pre-incubated with the drugs for 20 min prior the initiation of kinase reaction by adding ATP and the reactions were carried out for 30 min in 15 ml polypropolyne tubes. Reactions were terminated by addition of 3 ml of CHCl3:CH3OH:HCl (200:100:0.75) followed by 0.6 ml of 0.6N HCl to induce phase separation. The mixtures were vortexed, centrifuged at 2000 rpm for 2 min and the upper phase was discarded. To the lower phase was added 1.5 ml of CHCl3:CH3OH:0.6N HCl (3:48:47) and the mixture vortexed and centrifuged at 2000 rpm for 2 min. The lower phase was then transferred to counting vials and evaporated. Samples were counted in a scintillation beta counter after adding 5 ml of Instafluor (Perkin-Elmer).
PI-kinase assay: Compounds are tested in C.1.1. PI kinase assays as described by Shokat et al., “A membrane capture assay for lipid kinase activity.” Nat. Protoc.

PI3K p110g = target: T4, PI3K p110g (Homo sapiens, UniProt P48736); assay: PI3K p110g kinase assay; format: biochemical
T4 construct: purchased Millipore
Experimental: In the assays described here, p110α-p85 complex and p110γ were acquired from Millipore. Assays were performed with Lα-phosphatidylinositol (Avanti) as described in Knight et al. Nat Protoc. 2007; 2 (10):2459-66. Inhibitor series were prepared 10% DMSO as 5× stocks for the assay. Assays of HsVps34 were performed as described in Knight et al, except that the final assay buffer composition used was changed to 20 mM HEPES 7.5, 100 mM NaCl, 3 mM MgCl, 1 mg/mL PI and 44 nM hvps34 was used in the assay. […] COS-7 cells were cultured in 10 cm dishes and transfected at 70% confluence with 10 μg of plasmid DNA (HA-tagged bovine PI4KIIIβ, HA-tagged human PI4KIIIα) using Lipofectamine 2000 and 5 ml Opti-MEM following the manufacturer's instructions. After 5 hours the transfection medium was replaced with 10 ml complete DMEM. 36 hrs post transfection, cells were washed once with 5 ml PBS (pH 7.4) and lysed in 1 ml of lysis buffer (1) on ice. Lysates were collected by scraping and after 15 min they were centrifuged at 13,000 rpm for 10 min. To the lysates was added 200 μl of protein G Sepharose 4 fast flow beads that were prewashed with PBS and lysis buffer and 2 μg of anti-HA antibody. The tubes were then incubated overnight at 4 degrees C. in a tube rotator. The Sepharose beads in the lysate were washed twice with 150 mM NaCl in RIPA buffer, twice with RIPA buffer and once with kinase buffer (50 mM Tris/HCl, pH 7.5, 20 mM MgCl2, 1 mM EGTA, 1 mM PtdIns, 0.4% Triton X-100, 0.5 mg/mL BSA) and finally the beads were resuspended in 200 μL kinase buffer. Kinase reactions were run in a mixture of 45 μL of PI buffer (1 mM PI in kinase buffer), 10 μL of immunoprecipitated beads, 2 µL of inhibitors (dissolved and diluted in DMSO) or DMSO and 5 μL of [γ-^32P]-ATP (1 mM and 2 μCi/tube). The immunoprecipitates in PI buffer were pre-incubated with the drugs for 20 min prior the initiation of kinase reaction by adding ATP and the reactions were carried out for 30 min in 15 ml polypropolyne tubes. Reactions were terminated by addition of 3 ml of CHCl3:CH3OH:HCl (200:100:0.75) followed by 0.6 ml of 0.6N HCl to induce phase separation. The mixtures were vortexed, centrifuged at 2000 rpm for 2 min and the upper phase was discarded. To the lower phase was added 1.5 ml of CHCl3:CH3OH:0.6N HCl (3:48:47) and the mixture vortexed and centrifuged at 2000 rpm for 2 min. The lower phase was then transferred to counting vials and evaporated. Samples were counted in a scintillation beta counter after adding 5 ml of Instafluor (Perkin-Elmer).
as §1

HCV genotype 2a = assay: microbe, parasite or virus in culture; format: cell-based; details: Hepatitis C virus, Huh7.5, read-out: HCV2a EC50
HRV = assay: Rhinovirus antiviral assay; format: cell-based; details: Human rhinovirus sp.
[1] = tested on: PI(4)P and PI(4,5)P2 pools in Huh7.5 cells; assay: Immunofluorescence of intracellular PI-4 and PIP2 pools in Huh7.5 cells; format: cell-based
Experimental: To further confirm its mechanism of action the effect of (1) on PI-4 levels was determined in cells using immunofluorescence to monitor the intracellular localized pools of PI-4. The effect of (1) on intracellular pools of PIP2 was tested, which were predicted to be similarly sensitive to inhibition using (1). […] Uninfected Huh7.5 cells or HCV-infected Huh7.5 cells were used.

[2] = immunofluorescence, 250 nM, 500 nM or 1 uM, uninfected or HCV-infected Huh7.5 cells

T4 sequence (P48736 whole entry): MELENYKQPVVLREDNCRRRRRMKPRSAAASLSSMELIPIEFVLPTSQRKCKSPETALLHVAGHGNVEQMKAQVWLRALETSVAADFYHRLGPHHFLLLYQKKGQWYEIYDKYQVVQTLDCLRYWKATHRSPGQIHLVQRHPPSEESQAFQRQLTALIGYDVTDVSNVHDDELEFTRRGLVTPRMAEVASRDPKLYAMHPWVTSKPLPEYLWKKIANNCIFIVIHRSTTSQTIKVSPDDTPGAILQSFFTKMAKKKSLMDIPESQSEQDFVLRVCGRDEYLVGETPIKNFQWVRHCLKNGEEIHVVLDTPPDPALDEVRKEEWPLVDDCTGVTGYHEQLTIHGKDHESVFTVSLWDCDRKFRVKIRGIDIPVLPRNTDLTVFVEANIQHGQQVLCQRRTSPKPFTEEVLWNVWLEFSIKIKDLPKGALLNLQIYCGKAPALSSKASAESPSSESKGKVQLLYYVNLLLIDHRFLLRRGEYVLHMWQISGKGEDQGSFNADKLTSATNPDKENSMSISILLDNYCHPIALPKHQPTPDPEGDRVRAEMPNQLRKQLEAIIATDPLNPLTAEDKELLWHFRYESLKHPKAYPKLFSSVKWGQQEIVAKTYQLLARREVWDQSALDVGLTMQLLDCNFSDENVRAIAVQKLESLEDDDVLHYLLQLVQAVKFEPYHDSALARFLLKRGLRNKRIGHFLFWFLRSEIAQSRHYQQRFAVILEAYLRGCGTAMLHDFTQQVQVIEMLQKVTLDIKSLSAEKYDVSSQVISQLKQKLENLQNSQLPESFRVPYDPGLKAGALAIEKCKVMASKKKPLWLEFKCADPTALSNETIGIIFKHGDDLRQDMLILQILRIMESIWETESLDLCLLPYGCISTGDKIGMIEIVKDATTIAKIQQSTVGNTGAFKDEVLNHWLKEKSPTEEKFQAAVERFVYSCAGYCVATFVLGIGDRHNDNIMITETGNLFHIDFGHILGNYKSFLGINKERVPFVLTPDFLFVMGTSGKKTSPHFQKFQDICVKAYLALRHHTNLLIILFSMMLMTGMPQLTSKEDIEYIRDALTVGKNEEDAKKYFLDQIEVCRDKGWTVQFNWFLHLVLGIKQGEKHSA
PI3KC2B, sequence (O00750 whole entry): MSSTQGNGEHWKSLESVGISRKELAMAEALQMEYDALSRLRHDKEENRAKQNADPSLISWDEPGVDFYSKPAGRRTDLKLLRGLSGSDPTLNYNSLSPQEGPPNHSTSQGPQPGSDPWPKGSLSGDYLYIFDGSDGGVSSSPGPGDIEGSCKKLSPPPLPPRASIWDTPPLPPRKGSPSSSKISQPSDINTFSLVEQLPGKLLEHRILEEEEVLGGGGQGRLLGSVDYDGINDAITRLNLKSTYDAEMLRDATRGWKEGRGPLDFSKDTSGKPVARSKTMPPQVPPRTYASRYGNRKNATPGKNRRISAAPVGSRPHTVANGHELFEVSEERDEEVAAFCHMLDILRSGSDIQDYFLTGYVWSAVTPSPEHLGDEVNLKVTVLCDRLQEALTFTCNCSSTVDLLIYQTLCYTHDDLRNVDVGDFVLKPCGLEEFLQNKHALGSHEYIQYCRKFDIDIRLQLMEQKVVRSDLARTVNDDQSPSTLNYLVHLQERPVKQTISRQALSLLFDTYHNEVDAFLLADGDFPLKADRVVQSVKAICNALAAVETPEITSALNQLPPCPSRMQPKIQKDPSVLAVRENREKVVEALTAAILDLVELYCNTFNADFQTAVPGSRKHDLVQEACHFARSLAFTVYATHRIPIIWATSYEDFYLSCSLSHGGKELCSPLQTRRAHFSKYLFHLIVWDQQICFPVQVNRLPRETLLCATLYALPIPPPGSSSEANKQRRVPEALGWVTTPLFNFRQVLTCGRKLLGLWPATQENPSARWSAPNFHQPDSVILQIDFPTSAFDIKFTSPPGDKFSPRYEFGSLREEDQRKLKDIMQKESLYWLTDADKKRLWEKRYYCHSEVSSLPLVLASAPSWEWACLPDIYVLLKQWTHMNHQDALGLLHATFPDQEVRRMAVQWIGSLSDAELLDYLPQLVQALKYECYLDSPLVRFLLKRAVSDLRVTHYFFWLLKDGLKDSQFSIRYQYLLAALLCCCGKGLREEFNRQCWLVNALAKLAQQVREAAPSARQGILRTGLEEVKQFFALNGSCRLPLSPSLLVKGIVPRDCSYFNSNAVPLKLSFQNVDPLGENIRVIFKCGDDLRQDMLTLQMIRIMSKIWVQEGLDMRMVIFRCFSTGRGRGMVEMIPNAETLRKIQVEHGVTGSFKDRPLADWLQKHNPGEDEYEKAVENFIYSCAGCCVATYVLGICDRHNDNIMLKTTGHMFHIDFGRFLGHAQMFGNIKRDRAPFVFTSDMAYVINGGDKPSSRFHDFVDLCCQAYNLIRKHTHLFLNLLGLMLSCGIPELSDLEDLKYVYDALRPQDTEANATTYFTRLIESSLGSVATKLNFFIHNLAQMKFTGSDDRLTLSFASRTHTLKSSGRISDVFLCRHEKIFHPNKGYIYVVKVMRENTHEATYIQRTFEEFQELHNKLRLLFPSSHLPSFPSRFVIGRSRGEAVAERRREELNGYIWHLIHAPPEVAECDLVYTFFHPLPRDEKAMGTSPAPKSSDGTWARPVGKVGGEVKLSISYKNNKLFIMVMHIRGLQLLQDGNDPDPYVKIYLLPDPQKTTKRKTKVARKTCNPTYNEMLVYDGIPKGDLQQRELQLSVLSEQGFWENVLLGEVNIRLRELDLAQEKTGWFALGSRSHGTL
T3 sequence (O02810 whole entry): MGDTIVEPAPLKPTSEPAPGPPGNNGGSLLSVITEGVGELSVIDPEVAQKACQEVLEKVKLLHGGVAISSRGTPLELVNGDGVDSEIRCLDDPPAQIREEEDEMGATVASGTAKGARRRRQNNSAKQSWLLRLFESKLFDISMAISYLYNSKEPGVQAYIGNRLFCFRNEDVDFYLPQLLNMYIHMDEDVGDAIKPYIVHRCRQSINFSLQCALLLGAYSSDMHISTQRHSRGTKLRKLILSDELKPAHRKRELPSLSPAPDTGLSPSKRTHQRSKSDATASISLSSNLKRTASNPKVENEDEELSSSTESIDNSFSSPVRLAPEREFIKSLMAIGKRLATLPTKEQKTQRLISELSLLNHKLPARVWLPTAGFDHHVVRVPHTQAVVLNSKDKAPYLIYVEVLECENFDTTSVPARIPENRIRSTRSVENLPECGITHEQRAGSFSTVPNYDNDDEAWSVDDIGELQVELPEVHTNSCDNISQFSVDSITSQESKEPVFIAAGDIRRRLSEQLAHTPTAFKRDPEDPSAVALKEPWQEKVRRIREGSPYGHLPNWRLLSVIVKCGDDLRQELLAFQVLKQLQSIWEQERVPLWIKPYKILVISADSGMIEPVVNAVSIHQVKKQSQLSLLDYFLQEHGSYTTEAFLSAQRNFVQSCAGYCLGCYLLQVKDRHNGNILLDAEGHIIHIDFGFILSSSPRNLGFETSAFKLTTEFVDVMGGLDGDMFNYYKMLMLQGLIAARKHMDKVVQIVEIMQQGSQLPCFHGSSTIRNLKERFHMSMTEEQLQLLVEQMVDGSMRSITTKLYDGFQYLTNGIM

Structure (SMILES)	pIC50 (PI3KC2B)	pIC50 (PI3K p110g)	pEC50 (HCV genotype 2a)	pEC50 (HRV)	other results
COc1ccc(-c2sc(N[C@H](C)C3CCCCC3)nc2C)cc1S(=O)(=O)N[C@H]1CC[C@H](O)CC1 [Compound S-193, 5-[2-[[(1R)-1-cyclohexylethyl]amino]-4-methyl-thiazol-5-yl]-N-(4-hydroxycyclohexyl)-2-methoxy-benzenesulfonamide]	< 5.00	–	–	–	–
COc1ccc(-c2sc(N[C@H](C)C3CCCCC3)nc2C)cc1S(=O)(=O)NC1CCCNC1 (stereo partly drawn) [Compound S-148, 5-[2-[[(1R)-1-cyclohexylethyl]amino]-4-methyl-thiazol-5-yl]-2-methoxy-N-(3-piperidyl)benzenesulfonamide]	–	< 5.00	–	–	pIC50 (PI4KIIIA): 6.00 to 7.00; pIC50 (PI3K p110a): < 5.00; pIC50 (PI4KIIIB): > 7.00
COc1ccc(-c2sc(NC(=O)CC3CCCC3)nc2C)cc1S(=O)(=O)Nc1ccc(O)cc1 [Compound S-1, 2-cyclopentyl-N-[5-[3-[(4-hydroxyphenyl)sulfamoyl]-4-methoxy-phenyl]-4-methyl-thiazol-2-yl]acetamide]	< 5.00	< 5.00	7.00 to 9.00	> 9.00	–
COc1ccc(-c2sc(NC(=O)CCC3CCCC3)nc2C)cc1S(=O)(=O)NC1CCNCC1 [Compound S-160, 3-cyclopentyl-N-[5-[4-methoxy-3-(4-piperidylsulfamoyl)phenyl]-4-methyl-thiazol-2-yl]propanamide]	< 5.00	< 5.00	–	–	–
COc1ccc(NS(=O)(=O)c2cc(-c3sc(NC4CCCCC4)nc3C)ccc2OC)c(C)c1 [Compound S-66, 5-[2-(cyclohexylamino)-4-methyl-thiazol-5-yl]-2-methoxy-N-(4-methoxy-2-methyl-phenyl)benzenesulfonamide; 2,2,2-trifluoroacetic acid]	–	–	5.00 to 6.00	> 9.00	–
COc1ccc(-c2sc(NC(C)C)nc2C)cc1S(=O)(=O)N[C@H]1CC[C@H](O)CC1 [Compound S-215, N-(4-hydroxycyclohexyl)-5-[2-(isopropylamino)-4-methyl-thiazol-5-yl]-2-methoxy-benzenesulfonamide]	< 5.00	< 5.00	–	–	–
COc1ccc(-c2sc(NCC3CCCCC3)nc2C)cc1S(=O)(=O)NC1CCCNC1 (stereo not shown) [Compound S-115, 5-[2-(cyclohexylmethylamino)-4-methyl-thiazol-5-yl]-2-methoxy-N-(3-piperidyl)benzenesulfonamide]	–	–	6.00 to 7.00	> 9.00	pIC50 (PI4KIIIB): > 7.00
COc1ncc(-c2sc(NC(=O)CC3CCOCC3)nc2C)cc1S(=O)(=O)Nc1ccc(O)cc1 [Compound S-261]	–	6.00 to 7.00	7.00 to 9.00	5.00 to 6.00	–
COc1ccc(-c2sc(NC(=O)C3CCCC3)nc2C)cc1S(=O)(=O)Nc1ccc(O)cc1 [Compound 1]	–	–	–	–	Effect on the ER (calnexin co-staining) ([1]; control for non-specific effects): absence of any detectable effects on the ER; Effect on intracellular PI-4 (PI(4)P) levels [1, 2]: dose-dependent decrease; also recorded: decreases; Effect on intracellular PIP2 (PI(4,5)P2) levels [1, 2]: dose-dependent decrease; also recorded: decreases
COc1ncc(-c2sc(NC(=O)CC3CCOCC3)nc2C)cc1S(=O)(=O)Nc1ccc(F)cc1F [Compound S-260]	–	< 5.00	6.00 to 7.00	5.00 to 6.00	–
COc1ccc(-c2sc(NC(=O)CC3CCOCC3)nc2C)cc1S(=O)(=O)Nc1ccc(O)cc1C [Compound S-231, N-[5-[3-[(4-hydroxy-2-methyl-phenyl)sulfamoyl]-4-methoxy-phenyl]-4-methyl-thiazol-2-yl]-2-tetrahydropyran-4-yl-acetamide]	< 5.00	< 5.00	–	–	–
COc1ccc(-c2sc(NC(C)(C)C)nc2C)cc1S(=O)(=O)N[C@H]1CC[C@H](O)CC1 [Compound S-216, 5-[2-(tert-butylamino)-4-methyl-thiazol-5-yl]-N-(4-hydroxycyclohexyl)-2-methoxy-benzenesulfonamide]	< 5.00	< 5.00	–	–	–

From patent US10428060B2, “PI-kinase inhibitors with anti-infective activity” (The Board of Trustees of the Leland Stanford Junior …, priority 2011, dated 2019)
